Reference: patent publication US20240091217A1, “STABLE PHARMACEUTICAL ORAL LIQUID FORMULATION OF AN ANTISPASMODIC AGENT” (priority 2022, published 2024)

Columns and labels:
[1] = Degradation of Drotaverine HCl under stress conditions; assay type: physicochemical; details: alkaline medium, higher oxidative stress conditions, presence of light
Description: In some embodiments, the disclosed formulations employ very few excipients, all of which are completely safe for pediatric patients, economical, and readily available.

[2] = Solubilizing Drotaverine HCl in dispersion media of sorbitol liquid, glycerin and water, storage; assay type: physicochemical; details: glycerin, water 1:1:1 to 3:2:1, no stabilizing agent
Description: The inventors of the present disclosure tried solubilizing Drotaverine HCl in a ratio of dispersion media containing sorbitol liquid, glycerin, and water ranging from 1:1:1 to 3:2:1, respectively. […] To obtain a physically and chemically stable product with good shelf life, the present inventors resolved this precipitation of Drotaverine in the proposed dispersion media. In order to avoid the precipitation of Drotaverine, the present inventors added a stabilizing agent to the dispersion media.

[3] = cited from earlier work
[4] = cited from earlier work; remark: listed apart in the source

Q: Which results are given for `CCOc1ccc(C=C2NCCc3cc(OCC)c(OCC)cc32)cc1OCC` [Drotaverine, 1-[(3,4-diethoxyphenyl)methylene]-6,7-diethoxy-1,2,3,4-tetrahydroisoquinoline]?
A: degradation [1]: degrades extensively; precipitation on storage [2]: re-precipitated on storage; onset of action ([3]; after oral administration of 80 mg strength IR tablets): ≤ 12 min; renal clearance as share of the total plasma clearance ([3]; humans, Drotaverine IR tablets 80 mg): 0.31+/−0.13%; Absolute bioavailability (range) ([3]; humans, oral, subject dependent): 24.5-91%; Absolute bioavailability, mean (mean+/-SD) ([3]; humans, oral): 58.2+/−18.2%; oral LD50 [4]: > 1000 mg/Kg body weight
